In US20240132484A1, “BROAD SPECTRUM ANTIVIRAL COMPOUNDS TARGETING THE SKI COMPLEX” (priority 2020, published 2024):
Values joined by “and” are separate entries in the source; they are usually repeats but may differ in a detail not shown here. Equal values may be shown once. Read-outs that look alike come from different tables or passages of the source.

How the values were obtained:
SARS2 = type: cell-based, SARS-CoV-2; settings: for Percentage Infection Relative to Appropriate DMSO Control with Avg Background Subtraction: single well

Cc1cc(CN(CCN(C)C)Cc2ccsc2)oc1C [SILCS27]
Infection Data, Average, Mean (SARS2; Average of Exp 1-3, n 9, 1 uM): 101.69% | Infection Data, Average, Mean (SARS2; Average of Exp 1-3, n 9, 5 uM): 91.50% | Infection Data, Average, Mean (SARS2; Average of Exp 1-3, n 9, 10 uM): 93.59% | Infection Data, Average, Mean (SARS2; Average of Exp 1-3, n 9, 25 uM): 67.45% | Infection Data, Average, Mean (SARS2; Average of Exp 1-3, n 9, 50 uM): 20.11% | Percentage Infection Relative to Appropriate DMSO Control with Avg Background Subtraction (SARS2; Exp 1 (SMW475), 1 uM): 107.33% and 128.47% and 95.32% | Percentage Infection Relative to Appropriate DMSO Control with Avg Background Subtraction (SARS2; Exp 1 (SMW475), 5 uM): 113.52% and 118.94% and 106.69% | Percentage Infection Relative to Appropriate DMSO Control with Avg Background Subtraction (SARS2; Exp 1 (SMW475), 10 uM): 137.00% and 134.73% and 122.43% | Percentage Infection Relative to Appropriate DMSO Control with Avg Background Subtraction (SARS2; Exp 1 (SMW475), 25 uM): 63.59% and 56.84% and 58.04% | Percentage Infection Relative to Appropriate DMSO Control with Avg Background Subtraction (SARS2; Exp 1 (SMW475), 50 uM): 15.03% and 16.97% and 13.28% | Percentage Infection Relative to Appropriate DMSO Control with Avg Background Subtraction (SARS2; Exp 2 (SMW477), 1 uM): 100.41% and 105.41% and 110.54% | Percentage Infection Relative to Appropriate DMSO Control with Avg Background Subtraction (SARS2; Exp 2 (SMW477), 5 uM): 92.70% and 91.91% and 94.77% | Percentage Infection Relative to Appropriate DMSO Control with Avg Background Subtraction (SARS2; Exp 2 (SMW477), 10 uM): 76.80% and 77.09% and 89.00% | Percentage Infection Relative to Appropriate DMSO Control with Avg Background Subtraction (SARS2; Exp 2 (SMW477), 25 uM): 62.89% and 48.77% and 73.05% | Percentage Infection Relative to Appropriate DMSO Control with Avg Background Subtraction (SARS2; Exp 2 (SMW477), 50 uM): 26.32% and 19.89% and 21.80% | Percentage Infection Relative to Appropriate DMSO Control with Avg Background Subtraction (SARS2; Exp 3 (SMW478), 1 uM): 87.75% and 89.34% and 90.68% | Percentage Infection Relative to Appropriate DMSO Control with Avg Background Subtraction (SARS2; Exp 3 (SMW478), 5 uM): 79.11% and 61.06% and 64.83% | Percentage Infection Relative to Appropriate DMSO Control with Avg Background Subtraction (SARS2; Exp 3 (SMW478), 10 uM): 89.71% and 51.99% and 63.55% | Percentage Infection Relative to Appropriate DMSO Control with Avg Background Subtraction (SARS2; Exp 3 (SMW478), 25 uM): 80.23% and 76.86% and 86.74% | Percentage Infection Relative to Appropriate DMSO Control with Avg Background Subtraction (SARS2; Exp 3 (SMW478), 50 uM): 18.61% and 22.87% and 26.23% | Percentage Inhibition Average 1 μM (SARS2; SARS2, 1 μM): −1.69% | Screening data (Relative infection to DMSO controls) Average 1 μM (SARS2; SARS2, 1 μM, 100=DMSO control): 101.69 | Percentage Inhibition Average 5 μM (SARS2; SARS2, 5 μM): 8.50% | Screening data (Relative infection to DMSO controls) Average 5 μM (SARS2; SARS2, 5 μM, 100=DMSO control): 91.50 | Percentage Inhibition Average 10 μM (SARS2; SARS2, 10 μM): 6.41% | Screening data (Relative infection to DMSO controls) Average 10 μM (SARS2; SARS2, 10 μM, 100=DMSO control): 93.59 | Percentage Inhibition Average 25 μM (SARS2; SARS2, 25 μM): 32.55% | Screening data (Relative infection to DMSO controls) Average 25 μM (SARS2; SARS2, 25 μM, 100=DMSO control): 67.45 | Percentage Inhibition Average 50 μM (SARS2; SARS2, 50 μM): 79.89% | Screening data (Relative infection to DMSO controls) Average 50 μM (SARS2; SARS2, 50 μM, 100=DMSO control): 20.11 | Average (relative infection to DMSO over the 5 tested concentrations) (SARS2; SARS2, average over 1 to 50 uM, 100=DMSO control): 74.87 | Relative cell count to DMSO controls, Average 1 μM (cells (nuclei count); 1 μM, toxicity data, 100=DMSO control): 109.07 | Relative cell count to DMSO controls, Average 5 μM (cells (nuclei count); 5 μM, toxicity data, 100=DMSO control): 120.66 | Relative cell count to DMSO controls, Average 10 μM (cells (nuclei count); 10 μM, toxicity data, 100=DMSO control): 120.18 | Relative cell count to DMSO controls, Average 25 μM (cells (nuclei count); 25 μM, toxicity data, 100=DMSO control): 103.23 | Relative cell count to DMSO controls, Average 50 μM (cells (nuclei count); 50 μM, toxicity data, 100=DMSO control): 86.33 | Toxicity Data, Average, Mean (cells (nuclei count); Average of Exp 1-3, n 9, 1 uM): 109.07% | Toxicity Data, Average, Mean (cells (nuclei count); Average of Exp 1-3, n 9, 5 uM): 120.66% | Toxicity Data, Average, Mean (cells (nuclei count); Average of Exp 1-3, n 9, 10 uM): 120.18% | Toxicity Data, Average, Mean (cells (nuclei count); Average of Exp 1-3, n 9, 25 uM): 103.23% | Toxicity Data, Average, Mean (cells (nuclei count); Average of Exp 1-3, n 9, 50 uM): 86.33% | Relative cell count to DMSO controls, Average (for correlation analysis) (cells (nuclei count); average value over the 5 tested concentrations (1 to 50 uM)): 107.89
